# Where two headings read alike, the source gives them in different places.
# Experiments:
# human PPARγ = target: T1, human PPARγ (Homo sapiens, UniProt P37231); experiment: PPARγ activation test (GAL-4/luciferase reporter in NIH/3T3 cell); type: cell-based; settings: luciferase activity, 24 hrs incubation
# T1 construct: expressed in transfected cells; host or cells: NIH/3T3
# T1 sequence (P37231 238-503 limits assumed): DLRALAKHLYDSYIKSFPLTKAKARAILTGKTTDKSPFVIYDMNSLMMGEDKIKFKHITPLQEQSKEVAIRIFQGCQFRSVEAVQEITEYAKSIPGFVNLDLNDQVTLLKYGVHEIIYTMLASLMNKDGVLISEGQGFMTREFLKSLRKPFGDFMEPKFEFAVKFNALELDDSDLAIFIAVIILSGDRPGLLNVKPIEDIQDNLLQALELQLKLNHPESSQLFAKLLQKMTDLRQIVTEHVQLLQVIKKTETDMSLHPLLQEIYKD
# Description: The activity for PPARγ activation was examined as follows.
# The vector fused with ligand binding domain of a human PPARγ gene and DNA binding site of a yeast GAL-4 gene, and luciferase reporter vector were simultaneously transfected in NIH/3T3 cell. The cells were cultured for 24 hrs. The solution containing the cells at a concentration of 2×10^4 cells/well was placed on a 96-well plate. Then, each of the test compounds of the present invention and the control group without test compounds was added thereto. After incubating for 24 hrs, the cells were subjected to lysis.
# C57/BL6J mice [1] = experiment: Adverse side effects check (weight, heart weight, liver weight, GPT/GOT) in high fat diet C57/BL6J mice; settings: for GOT / GPT / Heart Weight / Liver Weight / Weight: high fat diet C57/BL6J mice
# Description: (§2) To check possible adverse side effects caused by the administration of the compound, the weight, heart weight and liver weight of each mouse were measured. GPT and GOT values were also calculated by employing a kit available in the market.
# ob/ob mice [2] = settings: relative to control
# Description: The effectiveness in lowering blood glucose level of the inventive compound was examined using ob/ob mice (male, 8-9 week old), a type 2 diabetes model animals which expresses signs of hyperglycemia and hyperinsulinemia, bred in house facilities of Korea Research Institute of Chemical Technology.
# (§1) The resulting solution was intraperitoneally administered to the mice at a dose of 50 mg/kg, once a day for 5 days, or orally administered to the mice, at a dose of 100 mg/kg, twice a day for 14 days. Days 1, 3 and 5 were selected for intraperitoneal administration, and days 5, 10 and 14, for oral administration, to collect blood samples for measuring the blood glucose levels. […] Upon the completion of the oral administration for 14 days, the mice were fasted for 16 hrs to perform OGTT (Oral Glucose Tolerance Test) to determine the changes in insulin sensitivity induced by the oral administration. After administrating glucose to the mice at a dose of 2 g/kg orally, blood samples were collected at 0, 15, 30 60 and 120 minutes to measure blood glucose levels.
# C57/BL6J mice [3] = system: C57/BL6J mice
# Description: as §2
# ob/ob mice [4] = settings: total amount of blood glucose over 120 minutes after glucose 2 g/kg orally, after 14 days oral administration
# Description: as §1
# C57/BL6J mice [5] = settings: high fat diet C57/BL6J mice, after oral administration for 14 days once a day
# Description: as §1
# [6] = high fat diet C57/BL6J mice, oral administration for 14 days once a day
smiles,measurement,setting,value
"CCOC(=O)C1=C(c2ccccc2)c2ccc(OCCCc3ccccc3)cc2C1(O)c1ccccc1 (centres unmarked) [Compound 7, 1-hydroxy-1,3-diphenyl-6-(3-phenyl-propoxy)-1H-indene-2-carboxylic acid ethyl ester]",EC50,human PPARγ,25 nM
"CCOC(=O)C1=C(c2ccccc2)c2ccc(OC)cc2C1(O)C1CCCCC1 (centres unmarked) [Compound 6, 1-cyclohexyl-1-hydroxy-6-methoxy-3-phenyl-1H-indene-2-carboxylic acid ethyl ester]",EC50,human PPARγ,50 nM
"CCOC(=O)C1=C(c2ccccc2)c2ccc(OC)cc2C1(O)C(C)C (centres unmarked) [Compound 3, 1-hydroxy-1-isopropyl-6-methoxy-3-phenyl-1H-indene-2-carboxylic acid ethyl ester]",EC50,human PPARγ,250 nM
"CN(CCOc1ccc(CC2SC(=O)NC2=O)cc1)c1ccccn1 (centres unmarked) [Rosiglitazone, reference compound]",GOT,C57/BL6J mice [1],40 ± 7.1 karmen
same,GPT,C57/BL6J mice [1],79 ± 8.3/ karmen
same,Heart Weight,C57/BL6J mice [1],0.133 ± 0.004 g
same,Liver Weight,C57/BL6J mice [1],1.35 ± 0.14 g
same,Weight,C57/BL6J mice [1],40 ± 1.6 g
"CCOC(=O)C1=C(c2ccccc2)c2ccc(OC)cc2C1(O)Cc1ccccc1 (centres unmarked) [Compound 5, 1-benzyl-1-hydroxy-6-methoxy-3-phenyl-1H-indene-2-carboxylic acid ethyl ester]",EC50,human PPARγ,95 nM
"CCOC(=O)C1=C(c2ccccc2)c2ccc(OC)cc2C1NC(C)=O (centres unmarked) [Compound 24, 1-acetylamino-6-methoxy-3-phenyl-1H-indene-2-carboxylic acid ethyl ester]",EC50,human PPARγ,50 nM
"CCOC(=O)C1=C(c2ccccc2)c2ccc(OCCN3CCOCC3)cc2C1(O)c1ccccc1 (centres unmarked) [Compound 8, 1-hydroxy-6-(2-morpholine-4-yl-ethoxy)-1,3-diphenyl-1H-indene-2-carboxylic acid ethyl ester]",melting point,,121 to 123 °C
same,EC50,human PPARγ,75 nM
"CCOC(=O)C1=C(c2ccccc2)c2ccc(OC)cc2C1(C)O (centres unmarked) [Compound 4, 1-hydroxy-6-methoxy-1-methyl-3-phenyl-1H-indene-2-carboxylic acid ethyl ester]",EC50,human PPARγ,230 nM
"CCOC(=O)C1=C(c2ccccc2)c2ccc(OC)cc2C1OC (centres unmarked) [Compound 18, 1,6-dimethoxy-3-phenyl-1H-indene-2-carboxylic acid ethyl ester]",EC50,human PPARγ,45 nM
"CCOC(=O)C1=C(c2ccccc2)c2ccc(OCCCc3ccccc3)cc2C1NC(C)=O (centres unmarked) [Compound 26, 1-acetylamino-3-phenyl-6-(3-phenyl-propoxy)-1H-indene-2-carboxylic acid ethyl ester]",EC50,human PPARγ,40 nM
"COc1ccc2c(c1)C(O)(Cc1ccccc1)C(C(=O)O)=C2c1ccccc1 (centres unmarked) [Compound 15, 1-benzyl-1-hydroxy-6-methoxy-3-phenyl-1H-indene-2-carboxylic acid]",EC50,human PPARγ,230 nM
"CCOC(=O)C1=C(c2ccccc2)c2ccc(OC)cc2C1OCC (centres unmarked) [Compound 19, 1-ethoxy-6-methoxy-3-phenyl-1H-indene-2-carboxylic acid ethyl ester]",EC50,human PPARγ,20 nM
"CCOC(=O)C1=C(c2ccccc2)c2ccc(OCCN3CCOCC3)cc2C1(O)c1ccccc1 (centres unmarked) [The Inventive Compound, 1-hydroxy-6-(2-morpholine-4-yl-ethoxy)-1,3-diphenyl-1H-indene-2-carbo-xylic acid ethyl ester]",Extent of Inhibition (%) of blood glucose level,"ob/ob mice [2]; Intraperitoneal Administration (50 mg/kg/day), once a day for 5 days",32.0%
same,Extent of Inhibition (%) of blood glucose level,"ob/ob mice [2]; Oral Administration (100 mg/kg/day), 14 days",23.7%
same,Side effects (summary in words),C57/BL6J mice [1]; administered orally or intraperitoneally,"no side effects such as weight gain, hepatotoxicity or cardiotoxicity"
same,GOT,C57/BL6J mice [1],35 ± 6.2 karmen
same,GPT,C57/BL6J mice [1],47 ± 6.5/ karmen
same,Heart Weight,C57/BL6J mice [1],0.117 ± 0.012 g
same,Liver Weight,C57/BL6J mice [1],1.22 ± 0.10 g
same,Weight,C57/BL6J mice [1],37 ± 2.0 g
same,Effect in lowering blood glucose and insulin levels (summary in words),"C57/BL6J mice [3]; administered orally or intraperitoneally, Tables 6, 7 and 8",excellent effect in lowering both blood glucose and insulin levels
same,"Inhibition Ratio (%), Blood Insulin level",C57/BL6J mice [3]; [6],44.6%
same,"Inhibition Ratio (%), Blood glucose level",C57/BL6J mice [3]; [6],30.0%
same,"Extent of Inhibition (%), Oral Glucose Tolerance Test (Blood Glucose)",ob/ob mice [4],10.2%
same,"Inhibition Ratio (%), Oral Glucose Tolerance Test (Glucose)",C57/BL6J mice [5],23.8%
same,"Inhibition Ratio (%), Oral Glucose Tolerance Test (Insulin)",C57/BL6J mice [5],56.2%
"CCOC(=O)C1=C(c2ccccc2)c2ccc(OC)cc2C1NC(=O)CC (centres unmarked) [Compound 25, 6-methoxy-3-phenyl-1-propionylamino-1H-indene-2-carboxylic acid ethyl ester]",EC50,human PPARγ,12 nM
"N#CC1=C(c2ccccc2)c2ccc(OCCCc3ccccc3)cc2C1(O)c1ccccc1 (centres unmarked) [Compound 11, 1-hydroxy-1,3-diphenyl-6-(3-phenyl-propoxy)-1H-indene-2-carbonitrile]",EC50,human PPARγ,100 nM
"CCOC(=O)C1=C(c2ccccc2)c2ccc(OC)cc2C1NC1CCCCC1 (centres unmarked) [Compound 32, 1-cyclohexyl amino-6-methoxy-3-phenyl-1H-indene-2-carboxylic acid ethyl ester]",EC50,human PPARγ,250 nM
"CCOC(=O)C1=C(c2ccccc2)c2ccc(OCCc3ccccn3)cc2C1(O)c1ccccc1 (centres unmarked) [Compound 10, 1-hydroxy-1,3-diphenyl-6-(2-pyridine-2-yl-ethoxy)-1H-indene-2-carboxylic acid ethyl ester]",EC50,human PPARγ,150 nM
